Measured values reported in patent publication US20040024024A1, “Aromatic sulfone hydroxamates and their use as protease inhibitors” (priority 2001, published 2004).

Assays:
Assay in all cases: In vitro MMP inhibition, IC50 determination (fluorogenic substrate I)
Format in all cases: biochemical
Human recombinant MMP-14 = molecular target: T1, Human recombinant MMP-14 (Homo sapiens, UniProt P50281)
T1 construct: The catalytic domain enzyme was expressed in E. coli inclusion bodies, solubilized in urea; made in house
Summary of the method: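 Catalytic-domain MMP-14, expressed in E. coli and refolded, activated with APMA or trypsin; compounds incubated at room temperature with 4 μM fluorogenic substrate I (MCA-PLGL-Dpa-AR-NH2) in Tris/NaCl/CaCl2 buffer, pH 7.5. Fluorescence at ex 328/em 415 nm; IC50 from loss of fluorescence versus inhibitor concentration.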

Human recombinant MMP-2 = molecular target: T2, Human recombinant MMP-2 (Homo sapiens, UniProt P08253)
T2 construct: made in house; host or cells: MMP-2-transfected p2AHT2 cells
T2 sequence (P08253 110-660): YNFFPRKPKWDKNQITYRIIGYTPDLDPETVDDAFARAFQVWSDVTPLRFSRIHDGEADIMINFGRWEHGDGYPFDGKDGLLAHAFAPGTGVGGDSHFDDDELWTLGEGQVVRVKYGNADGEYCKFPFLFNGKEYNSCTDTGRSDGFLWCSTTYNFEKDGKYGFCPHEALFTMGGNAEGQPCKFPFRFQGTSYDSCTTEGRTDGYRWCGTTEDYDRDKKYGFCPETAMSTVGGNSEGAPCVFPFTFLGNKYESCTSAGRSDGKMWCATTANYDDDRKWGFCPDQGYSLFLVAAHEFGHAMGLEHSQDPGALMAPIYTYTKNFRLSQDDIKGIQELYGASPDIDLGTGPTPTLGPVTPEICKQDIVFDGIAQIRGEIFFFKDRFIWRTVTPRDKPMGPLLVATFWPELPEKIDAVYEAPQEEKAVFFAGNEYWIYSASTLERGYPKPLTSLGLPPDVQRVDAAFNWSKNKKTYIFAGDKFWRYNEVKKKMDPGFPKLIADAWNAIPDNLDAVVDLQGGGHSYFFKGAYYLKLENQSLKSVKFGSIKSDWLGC
Summary of the method: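 APMA- or trypsin-activated recombinant MMP-2 was incubated at room temperature with serial inhibitor dilutions in Tris buffer pH 7.5 (100 mM NaCl, 10 mM CaCl2, 0.05% Brij), with DMSO from 1% stocks, and 4 μM substrate I. Cleavage was read by fluorescence at 328/415 nm; IC50 was taken from the loss of fluorescence versus inhibitor concentration.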

Human recombinant MMP-9 = molecular target: T3, Human recombinant MMP-9 (Homo sapiens, UniProt P14780)
T3 construct: made in house; host or cells: MMP-9-transfected HT1080 cells (spent media)
Summary of the method: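 MMP-9 proenzyme purified from transfected HT1080 cell media, activated with APMA or trypsin. Compound dilutions in pH 7.5 Tris/NaCl/CaCl2 buffer with 0.05% polyoxyethylene 23 lauryl ether, incubated at room temperature with 4 μM MCA/Dpa substrate I. IC50 from fluorescence loss (ex 328, em 415 nm) versus inhibitor concentration.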

Human recombinant MMP-13 = molecular target: T4, Human recombinant MMP-13 (Homo sapiens, UniProt P45452)
T4 construct: made in house; host or cells: baculovirus / insect cells
Summary of the method: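 Fluorescence at 415 nm (excitation 328 nm) reports Gly-Leu cleavage of 4 μM quenched methoxycoumarin peptide substrate I. Human recombinant MMP-13, activated by trypsin or APMA, was incubated at room temperature with varied inhibitor concentrations in pH 7.5 Tris/NaCl/CaCl2 buffer; IC50 derived from reduced fluorescence.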

Human recombinant MMP-1 = molecular target: T5, Human recombinant MMP-1 (Homo sapiens, UniProt P03956)
T5 construct: made in house; host or cells: MMP-1-transfected HT-1080 cells (spent media)
T5 sequence (P03956 100-469): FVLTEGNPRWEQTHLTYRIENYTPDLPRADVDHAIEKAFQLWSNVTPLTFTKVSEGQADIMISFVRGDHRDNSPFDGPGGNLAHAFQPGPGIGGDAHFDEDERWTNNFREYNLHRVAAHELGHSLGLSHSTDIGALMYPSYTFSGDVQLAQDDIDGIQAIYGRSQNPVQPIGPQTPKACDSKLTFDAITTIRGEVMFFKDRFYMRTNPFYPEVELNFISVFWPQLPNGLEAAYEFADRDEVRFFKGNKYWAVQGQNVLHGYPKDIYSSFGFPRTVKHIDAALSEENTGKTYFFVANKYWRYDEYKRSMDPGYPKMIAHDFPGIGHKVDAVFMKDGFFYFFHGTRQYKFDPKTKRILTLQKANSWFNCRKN
Summary of the method: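 APMA- or trypsin-activated enzyme, purified from spent media of transfected HT-1080 cells, incubated at room temperature with 4 μM MCA-Pro-Leu-Gly-Leu-Dpa-Ala-Arg-NH2 and graded inhibitor in Tris buffer pH 7.5 (10 mM CaCl2, 0.05% Brij). Cleavage read by fluorescence (ex 328/em 415 nm); IC50 from fluorescence reduction versus inhibitor concentration.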

[1] = value outside parentheses (Ki in parenthesis)

T3 sequence (P14780 107-707 limits assumed): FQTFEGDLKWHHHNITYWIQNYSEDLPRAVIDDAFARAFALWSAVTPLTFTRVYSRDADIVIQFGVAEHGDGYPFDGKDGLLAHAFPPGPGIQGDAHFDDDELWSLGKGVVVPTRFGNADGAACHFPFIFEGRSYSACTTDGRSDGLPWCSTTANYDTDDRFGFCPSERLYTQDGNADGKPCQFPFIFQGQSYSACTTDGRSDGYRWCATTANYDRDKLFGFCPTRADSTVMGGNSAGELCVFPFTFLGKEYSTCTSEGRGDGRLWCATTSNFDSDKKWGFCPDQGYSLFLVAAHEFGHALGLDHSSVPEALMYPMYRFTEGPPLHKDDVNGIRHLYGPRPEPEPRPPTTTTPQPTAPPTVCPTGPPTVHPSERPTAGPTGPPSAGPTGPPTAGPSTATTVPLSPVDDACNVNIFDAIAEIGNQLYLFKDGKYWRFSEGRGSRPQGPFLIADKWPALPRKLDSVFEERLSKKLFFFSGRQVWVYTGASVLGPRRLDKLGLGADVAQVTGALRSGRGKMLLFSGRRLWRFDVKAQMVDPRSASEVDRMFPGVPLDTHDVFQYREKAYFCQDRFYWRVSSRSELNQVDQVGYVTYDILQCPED

IC50 (Human recombinant MMP-14; [1]) | IC50 (Human recombinant MMP-2; [1]) | IC50 (Human recombinant MMP-9; [1]) | IC50 (Human recombinant MMP-13; [1]) | IC50 (Human recombinant MMP-1; [1]) | Structure (SMILES) | other results
> 10000 nM | 67 nM | > 10000 nM | 4 nM | > 10000 nM | COc1ccc(C(=O)N2CCC(COc3ccc(S(=O)(=O)C4(C(=O)NO)CCOCC4)cc3)CC2)cc1 [Example 420] | –
> 10000 nM | 176 nM | 1600 nM | 3.7 nM | > 10000 nM | C[C@@H]1[C@H](c2ccccc2)OC(=O)N1CCCOc1ccc(S(=O)(=O)C2(C(=O)NO)CCOCC2)cc1 [Example 308] | –
> 10000 nM | 50.7 nM | 5280 nM | 0.9 nM | > 10000 nM | CC(C)(C)c1ccc(C(=O)CCCCOc2ccc(S(=O)(=O)C3(C(=O)NO)CCOCC3)cc2)cc1 [Example 327] | –
– | – | – | – | – | O=C1N(CCCOc2ccc(S(=O)(=O)C3(C(=O)NO)CCOCC3)cc2)CCN1c1ccc(C(F)(F)F)cc1 [Example 193] | IC50 (Human recombinant MMP-14; value outside parenthesis): > 10000 nM; IC50 (Human recombinant MMP-2; value outside parenthesis): 312 nM; IC50 (Human recombinant MMP-9; value outside parenthesis): 273 nM; IC50 (Human recombinant MMP-13; value outside parenthesis): 6.8 nM; IC50 (Human recombinant MMP-1; value outside parenthesis): 5930 nM
– | – | – | – | – | Cc1cc(C)nc(SCCCOc2ccc(S(=O)(=O)C3(C(=O)NO)CCOCC3)cc2)n1 [Example 286] | IC50 (Human recombinant MMP-14; value outside parenthesis): > 10000 nM; IC50 (Human recombinant MMP-2; value outside parenthesis): 74.9 nM; IC50 (Human recombinant MMP-9; value outside parenthesis): 1130 nM; IC50 (Human recombinant MMP-13; value outside parenthesis): 4 nM; IC50 (Human recombinant MMP-1; value outside parenthesis): > 10000 nM
> 10000 nM | 360 nM | > 10000 nM | 0.8 nM | > 10000 nM | O=C(NCCCOc1ccc(S(=O)(=O)C2(C(=O)NO)CCOCC2)cc1)c1cc2ccccc2cc1O [Example 376] | –
– | – | – | – | – | Cc1ccccc1N1CC(=O)N(CCCOc2ccc(S(=O)(=O)C3(C(=O)NO)CCOCC3)cc2)C1=O [Example 226] | IC50 (Human recombinant MMP-14; value outside parenthesis): > 10000 nM; IC50 (Human recombinant MMP-2; value outside parenthesis): 222 nM; IC50 (Human recombinant MMP-9; value outside parenthesis): 2140 nM; IC50 (Human recombinant MMP-13; value outside parenthesis): 4.3 nM; IC50 (Human recombinant MMP-1; value outside parenthesis): > 10000 nM
> 10000 nM | 500 nM | > 10000 nM | 0.5 nM | 6000 nM | CN(C)c1ccc(C(=O)NCCCOc2ccc(S(=O)(=O)C3(C(=O)NO)CCOCC3)cc2)cc1 [Example 361] | –
– | – | – | – | – | COc1ccc(C(=O)CCOc2ccc(S(=O)(=O)C3(C(=O)NO)CCOCC3)cc2)cc1 [Example 494] | IC50 (Human recombinant MMP-14; value outside parentheses): 197 nM; IC50 (Human recombinant MMP-2; value outside parentheses): < 0.1 nM; IC50 (Human recombinant MMP-9; value outside parentheses): 13.6 nM; IC50 (Human recombinant MMP-13; value outside parentheses): < 0.1 nM; IC50 (Human recombinant MMP-1; value outside parentheses): 1520 nM
> 10000 nM | 135 nM | 1560 nM | 1.8 nM | > 10000 nM | C[C@H]1[C@@H](c2ccccc2)OC(=O)N1CCCOc1ccc(S(=O)(=O)C2(C(=O)NO)CCOCC2)cc1 [Example 309] | –
1570 nM | 3.1 nM | 169 nM | 0.5 nM | > 10000 nM | COc1ccc(C(O)CCCCOc2ccc(S(=O)(=O)C3(C(=O)NO)CCOCC3)cc2)cc1 (stereo not shown) [Example 487] | –
> 10000 nM | 1100 nM | 9600 nM | 2.4 nM | > 10000 nM | Cc1ccc(C(=O)NCCCOc2ccc(S(=O)(=O)C3(C(=O)NO)CCOCC3)cc2)cc1C [Example 371] | –
515 nM | 12 nM | 202 nM | 1.1 nM | 4700 nM | O=C(NO)C1(S(=O)(=O)c2ccc(OCCSc3nc4ccccc4o3)cc2)CCOCC1 [Example 410] | –
– | – | – | – | – | COc1ccc(C(=O)C(O)CCOc2ccc(S(=O)(=O)C3(C(=O)NO)CCOCC3)cc2)cc1 (stereo not shown) [Example 184] | IC50 (Human recombinant MMP-14; value outside parenthesis): 2720 nM; IC50 (Human recombinant MMP-2; value outside parenthesis): 30.4 nM; IC50 (Human recombinant MMP-9; value outside parenthesis): 104 nM; IC50 (Human recombinant MMP-13; value outside parenthesis): 3.9 nM; IC50 (Human recombinant MMP-1; value outside parenthesis): 1530 nM
